Read-outs that look alike come from different tables or passages of the source.
Legend:
Format in all cases: cell-based
SKBR-3 = experiment: MTT assay, SKBR-3 breast cancer cells; settings: for viability at 10 µM / GI50: Homo sapiens, SK-BR-3; for viability at 10 µM: read-out: Percentage of cell viability SKBR-3; for GI50: 72 h, mean of three independent experiments ± SEM
Protocol: (§1) The prepared compounds 1–126 were tested on three breast cancer cell lines namely, MDA-MB231, SKBR-3 and MCF-7 using MTT assay. SKBR-3 and MCF-7 cell lines are estrogen and progesterone hormone positive cell lines often used as a model for the hormone therapy.[18] MDA-MB231 is triple negative breast cancer cell line, which is negative to estrogen and progesterone receptors and human epidermal growth factor receptor 2, a perfect model for chemotherapy.[18] Initially, all the prepared compounds 1–126 were tested on these three cancer cell lines at the screening concentration (10 μM) and percentage of cell viability was calculated 72 h after the treatment (Table 1).
(§2) The growth inhibitory effect of the compounds was determined on breast tumor cell line (MDA-MB231, SKBR-3 and MCF-7) at different concentrations with methotrexate and nilotinib as positive controls (Table 2).
(§3) The cytotoxic activity of 6,N^2-diaryl-1,3,5-triazine-2,4-diamines (1–126) was evaluated against three breast carcinoma cell lines (MDA-MB231, SKBR-3, and MCF-7) and normal breast cell line (MCF-10A) by MTT assay.[22] All cells were obtained from the American Type Culture Collection and were grown in 10% fetal bovine serum and 1% pen-strep antibiotic supplemented media (DMEM for MDA-MB231 and SKBR-3, RPMI for MCF-7, and MEGM for MCF-10A). For MTT assay, 20 000 to 75 000 cells per mL (based on the doubling time for each cell line) were seeded in 96 well plates and incubated for 24 h at 37 °C in 5% CO2 incubator. Then, compounds at different concentrations were added followed by the incubation at 37 °C for 72 h. After that, MTT solution (0.5 mg mL^−1) was added and the plates were incubated for another 4 h. The supernatant was then discarded and 100 μL of DMSO was added to each well. The plates were then read by Tecan NanoQuant (model: infinite m200 pro) plate reader and absorbance was measured at 570 nm. GI50 values were calculated using sigmoidal concentration–response curves (see ESI ^†) generated using the GraphPad Prism 7 program. Three independent experiments were carried out and the data were represented as mean of the three experiments.

MCF-10A = experiment: MTT assay, MCF-10A normal breast cells; settings: Homo sapiens, 72 h, read-out: GI50 (μM) ± SEM MCF-10A
Protocol: All the compounds, selected for determination of GI50 values against MDA-MB231 cells, were also used for the experiments with MCF-10A normal breast cells.
as §3

MCF-7 = experiment: MTT assay, MCF-7 breast cancer cells; settings: for viability at 10 µM / GI50: Homo sapiens; for viability at 10 µM: MCF7, 10 μM, read-out: Percentage of cell viability MCF-7; for GI50: MCF7, 72 h, mean of three independent experiments ± SEM
Protocol: as §1, §2, §3

MDA-MB231 = experiment: MTT assay, MDA-MB231 breast cancer cells; settings: for viability at 10 µM / GI50: Homo sapiens, MDA-MB-231; for viability at 10 µM: read-out: Percentage of cell viability MDA-MB231
Protocol: as §1, §2, §3

[1] = 10 μM, 72 h after the treatment, MTT, mean of three independent experiments
[2] = 72 h after the treatment, mean of three independent experiments
[3] = 72 h, MTT, mean of three independent experiments ± SEM, read-out: GI50 (μM) ± SEM MDA-MB231
[4] = −log[GI50], MDA-MB231, read-out: Experimental pGI50 (converted)

Row | Compound | GI50 (SKBR-3; MTT) [µM] | GI50 (MCF-7) [µM] | GI50 (MDA-MB231; [3]) [µM] | GI50 (MDA-MB231; [4]) [µM] | viability at 10 µM (SKBR-3; [1]) [%] | GI50 (MCF-10A) [µM] | viability at 10 µM (MCF-7; [2]) [%] | viability at 10 µM (MDA-MB231; [1]) [%] | activity against SKBR-3 cells (in words) (SKBR-3; SAR discussion, compared with MDA-MB231) | Percentage of cell viability SKBR-3 (SKBR-3; [1]) [%] | Percentage of cell viability MCF-7 (MCF-7; 10 μM, 72 h after the treatment, mean of three independent experiments) [%] | Percentage of cell viability MDA-MB231 (MDA-MB231; [1]) [%]
1 | Nc1nc(Nc2ccc(F)cc2)nc(-c2ccc(Cl)cc2)n1 [Compound 36] | 19.4 ± 2.39 | > 20 | 14.1 ± 1.52 | 14.1 | 98 | > 25 | 100 | 49 |  |  |  | 
2 | COc1ccc(-c2nc(N)nc(Nc3ccccc3F)n2)cc1 [Compound 70] | > 20 | > 20 | 0.32 ± 0.04 | 0.324 | 46 | > 25 | 63 | 9 |  |  |  | 
3 | COc1ccc(-c2nc(N)nc(Nc3ccccc3Cl)n2)cc1 [Compound 73] | 1.1 ± 0.01 | > 20 | 0.23 ± 0.03 | 0.229 | 47 | > 25 | 84 | 10 | equipotent |  |  | 
4 | COc1ccc(-c2nc(N)nc(Nc3cccc(Cl)c3)n2)cc1 [Compound 74] | 0.18 ± 0.04 | 18.3 ± 1.11 | 1.33 ± 0.17 | 1.32 | 45 | > 25 | 86 | 22 |  |  |  | 
5 | COc1ccc(-c2nc(N)nc(Nc3cccc(C)c3)n2)cc1 [Compound 77] | 3.38 ± 0.36 | > 20 | 0.95 ± 0.04 | 0.955 | 40 | > 25 | 79 | 22 |  |  |  | 
6 | COc1ccc(-c2nc(N)nc(Nc3ccccc3OC)n2)cc1 [Compound 78] | 2.15 ± 0.12 | > 20 | 13.2 ± 0.93 | 13.2 | 66 | > 25 | 57 | 50 |  |  |  | 
7 | COc1ccc(-c2nc(N)nc(Nc3cccnc3)n2)cc1 [Compound 81] | 15.6 ± 1.06 | > 20 | 14 ± 1.33 |  | 77 | > 25 | 91 | 46 |  |  |  | 
8 | COc1ccccc1Nc1nc(N)nc(-c2ccc(OC(F)(F)F)cc2)n1 [Compound 95] | > 20 | > 20 | 12.8 ± 0.76 | 12.9 | 81 | > 25 | 88 | 46 |  |  |  | 
9 | Nc1nc(Nc2cccnc2)nc(-c2ccc(OC(F)(F)F)cc2)n1 [Compound 99] | > 20 | > 20 | 11.5 ± 1.51 | 11.5 | 81 | > 25 | 85 | 33 |  |  |  | 
10 | CN(C)c1ccc(-c2nc(N)nc(Nc3ccccc3)n2)cc1 [Compound 100] | 4.19 ± 0.37 | > 20 | 0.36 ± 0.07 | 0.363 | 61 | > 25 | 80 | 21 |  |  |  | 
11 | CN(C)c1ccc(-c2nc(N)nc(Nc3ccccc3F)n2)cc1 [Compound 101] | 0.29 ± 0.04 | > 20 | 0.06 ± 0.001 | 0.0603 | 51 | > 25 | 88 | 28 |  |  |  | 
12 | CN(C)c1ccc(-c2nc(N)nc(Nc3ccc(F)cc3)n2)cc1 [Compound 102] | > 20 | > 20 | 7.2 ± 0.94 | 7.24 | 88 | > 25 | 90 | 32 |  |  |  | 
13 | COc1ccccc1Nc1nc(N)nc(-c2ccc(N(C)C)cc2)n1 [Compound 103] | 3.63 ± 0.23 | > 20 | 4.17 ± 0.33 | 4.17 | 48 | > 25 | 88 | 28 |  |  |  | 
14 | Nc1nc(Nc2ccccc2)nc(-c2ccc(OCc3ccccc3)cc2)n1 [Compound 110] | > 20 | > 20 | 13.4 ± 1.18 | 13.5 | 75 | > 25 | 100 | 51 |  |  |  | 
15 | Nc1nc(Nc2ccc(Br)cc2)nc(-c2cccs2)n1 [Compound 120] | > 20 | > 20 | 11.7 ± 1.39 | 11.7 | 87 | > 25 | 88 | 46 |  |  |  | 
16 | Cc1ccc(Nc2nc(N)nc(-c3cccs3)n2)cc1 [Compound 121] | > 20 | > 20 | 13.9 ± 1.74 | 13.8 | 95 | > 25 | 97 | 49 |  |  |  | 
17 | N ^2-(4-Methoxyphenyl)-6-(4-methylphenyl)-1,3,5-triazine-2,4-diamine [Compound 65] |  |  |  |  |  |  |  |  |  | 88 | 87 | 97

Further lines, with some results ahead:

Row | GI50 (SKBR-3; MTT) [µM] | GI50 (MCF-7) [µM] | GI50 (MDA-MB231; [3]) [µM] | GI50 (MDA-MB231; [4]) [µM] | Compound | viability at 10 µM (SKBR-3; [1]) [%] | GI50 (MCF-10A) [µM] | viability at 10 µM (MCF-7; [2]) [%] | viability at 10 µM (MDA-MB231; [1]) [%] | activity against SKBR-3 cells (in words) (SKBR-3; SAR discussion, compared with MDA-MB231) | Percentage of cell viability SKBR-3 (SKBR-3; [1]) [%] | Percentage of cell viability MCF-7 (MCF-7; 10 μM, 72 h after the treatment, mean of three independent experiments) [%] | Percentage of cell viability MDA-MB231 (MDA-MB231; [1]) [%]
18 | > 20 | > 20 | 9.21 ± 0.38 | 9.12 | Nc1nc(Nc2ccc(F)cc2)nc(-c2cccc(F)c2)n1 [Compound 14] | 100 | > 25 | 78 | 50 |  |  |  | 
19 | 17.2 ± 1.07 | > 20 | 13.1 ± 0.91 | 13.2 | Nc1nc(Nc2ccc(Br)cc2)nc(-c2cccc(F)c2)n1 [Compound 16] | 89 | > 25 | 80 | 43 |  |  |  | 
20 | > 20 | > 20 | 3.96 ± 0.17 | 3.98 | Cc1ccc(Nc2nc(N)nc(-c3cccc(F)c3)n2)cc1 [Compound 17] | 90 | > 25 | 71 | 29 |  |  |  | 
21 | 16.6 ± 1.38 | > 20 | 6.18 ± 0.43 | 6.17 | COc1ccc(Nc2nc(N)nc(-c3cccc(F)c3)n2)cc1 [Compound 18] | 74 | > 25 | 76 | 46 |  |  |  | 
22 | > 20 | 18.2 ± 1.28 | 8.56 ± 0.59 | 8.51 | Nc1nc(Nc2ccc(OC(F)(F)F)cc2)nc(-c2cccc(F)c2)n1 [Compound 19] | 100 | > 25 | 76 | 50 |  |  |  | 
23 | 1.26 ± 0.18 | > 20 | 0.17 ± 0.02 | 0.17 | Cc1ccc(Nc2nc(N)nc(-c3cccc(C)c3)n2)cc1 [Compound 56] | 62 | > 25 | 67 | 12 |  |  |  | 
24 | > 20 | > 20 | 15.2 ± 1.01 | 15.1 | Cc1cccc(-c2nc(N)nc(Nc3ccc(OC(F)(F)F)cc3)n2)c1 [Compound 58] | 100 | > 25 | 73 | 50 |  |  |  | 
25 | > 20 | > 20 | 12.2 ± 1.15 | 12.3 | Cc1ccc(-c2nc(N)nc(Nc3ccccc3F)n2)cc1 [Compound 61] | 79 | > 25 | 73 | 50 |  |  |  | 
26 | > 20 | 20.2 ± 1.95 | 10.7 ± 0.73 | 10.7 | Cc1ccc(-c2nc(N)nc(Nc3ccc(F)cc3)n2)cc1 [Compound 62] | 78 | > 25 | 100 | 48 |  |  |  | 

— PMC9050923, “6,N^2-Diaryl-1,3,5-triazine-2,4-diamines: synthesis, antiproliferative activity and 3D-QSAR modeling” (RSC Advances, 2020)
